# Where a name gives a salt, the structure may show the parent alone.
# Key:
# [1] = tested on: Drosophila larvae expressing G298S TDP-43 in motor neurons; test: Drug screen: rescue of lethality caused by G298S TDP-43 expression in motor neurons (D42 Gal4); type: in vivo; settings: transgene G298S; 30 μM in fly food
# Text: […] Larvae expressing TDP-43 (wild type or mutant, as shown) are raised on drug containing food.
# […] Larvae expressing TDP-43 (wt or mutant) were raised on drug containing food.
# (§1) Using a Drosophila model of ALS based on TDP-43 that recapitulates several aspects of the disease pathophysiology (33, 35), a drug screen aimed at identifying FDA approved compounds with neuroprotective potential in vivo were designed (FIG. 37A). […] This phenotype was used to screen for drug candidates with therapeutic potential as determined by their ability to rescue pupal lethality and produce viable adults with extended wings (FIG. 37A).
# Larvae expressing TDP-43 in motor neurons (D42>TDP-43) were raised on fly food containing different amounts of drug (1, 10 and 25 μM, see Materials and Methods for details) or Dimethyl Sulfoxide (DMSO) as vehicle control (FIG. 37B, C).
# UAS TDP-43 males were crossed with D42-Gal4 female virgins on fly food containing either DMSO or pioglitazone. For DMSO controls, the same volume of DMSO as the corresponding drug concentration was added. Bromophenol blue was added to a final concentration of approximately 0.02% to ensure homogeneity. Crosses were made on drug food with 3 female virgins and 2 males in each vial, and were maintained at 25° C. unless noted. The parents were discarded after 5-7 days then the vials were screened for adult progeny with straight wings from day 14 to day 25. All adults were screened for TDP-43 expression by visualizing the YFP tag. Total number of pupae was counted on day 25. Percent survival was calculated using the formula (total number of straight-winged adults/total number of pupae)×100. All experiments were performed in triplicate.
# [2] = tested on: Drosophila larvae expressing D169G TDP-43 in motor neurons; test: Drug screen: rescue of lethality caused by D169G TDP-43 expression in motor neurons (D42 Gal4); type: in vivo; settings: transgene D169G; 30 μM in fly food
# [3] = tested on: Drosophila larvae expressing N345K TDP-43 in motor neurons; test: Drug screen: rescue of lethality caused by N345K TDP-43 expression in motor neurons (D42 Gal4); type: in vivo; settings: transgene N345K; 50 μM in fly food
# Protocol: A drug screen aimed at rescuing the adult lethality caused by wild-type or mutant TDP-43 (D169G, G298S, A315T and N345K) overexpression in motor neurons has been performed (FIG. 11). 1200 FDA approved drugs from the Prestwick collection were fed to flies expressing TDP-43 at an initial concentration of 50 μM (as previously described in Chang et al., 2008). This screening strategy has several advantages including: (1) it is performed in vivo, (2) it is based on a robust phenotype (100% adult lethality), (3) it can lead to rapid identification of drugs that are already approved for use in humans and (4) it can inform the future development of small molecules with enhanced neuroprotective capabilities.
# (§2) FDA approved drugs from the Prestwick collection (200 mM in DMSO) are mixed with yeast-cornmeal based food and a bromophenol blue (as a mixing indicator) at a final concentration of 50 μM. Larvae expressing TDP-43 (wild type or mutant, as shown) are raised on drug containing food. In the absence of drugs, TDP-43 expression is lethal at the pupal/pharate stage. Drugs that rescued TDP-43 Induced Lethality (anywhere from 1-12 adults) were considered as candidates for future studies.
# as §2, with “DMSO) were” for “DMSO) are”, “TDP-43 (wt” for “TDP-43 (wild type”, “or mutant) were” for “or mutant, as shown) are”, “expression was” for “expression is”, “that rescue” for “that rescued”, “TDP-43 induced lethality” for “TDP-43 Induced Lethality”
# Using a Drosophila model of ALS based on TDP-43 that recapitulates several aspects of the disease pathophysiology (33, 35), a drug screen aimed at identifying FDA approved compounds with neuroprotective potential in vivo were designed (FIG. 37A). […] This phenotype was used to screen for drug candidates with therapeutic potential as determined by their ability to rescue pupal lethality and produce viable adults with extended wings (FIG. 37A). […]
# [4] = tested on: Drosophila larvae expressing A315T TDP-43 in motor neurons; test: Drug screen: rescue of lethality caused by A315T TDP-43 expression in motor neurons (D42 Gal4); type: in vivo; settings: transgene A315T; 50 μM in fly food
# Protocol: (§3) 1200 FDA approved drugs from the Prestwick collection were fed to flies expressing TDP-43 at an initial concentration of 50 μM (as previously described in Chang et al., 2008).
# (§4) FDA approved drugs from the Prestwick collection (200 mM in DMSO) are mixed with yeast-cornmeal based food and a bromophenol blue (as a mixing indicator) at a final concentration of 50 μM. Larvae expressing TDP-43 (wild type or mutant, as shown) are raised on drug containing food.
# (§5) FDA approved drugs from the Prestwick collection (200 mM in DMSO) were mixed with yeast-cornmeal based food and a bromophenol blue (as a mixing indicator) at a final concentration of 50 μM. Larvae expressing TDP-43 (wt or mutant) were raised on drug containing food.
# as §1
# [5] = tested on: Drosophila larvae expressing wild-type TDP-43 in motor neurons; test: Drug screen: rescue of lethality caused by wild-type TDP-43 expression in motor neurons (D42 Gal4); type: in vivo; settings: for Preliminary rescue result: adults with normal wings: transgene WT2
# [6] = tested on: Drosophila larvae expressing D169G TDP-43 in motor neurons; test: Drug screen: rescue of lethality caused by D169G TDP-43 expression in motor neurons (D42 Gal4); type: in vivo; settings: transgene D169G; 50 μM in fly food
# Protocol: as §3, §4, §5, §1
# [7] = tested on: cytochrome P450; settings: cited from earlier work
molecule,measurement,setting,value
CC(=O)N[C@@H](CS)C(=O)O [Acetylcysteine],Preliminary rescue result: adults with normal wings,[1],1 Adults
same,Preliminary rescue result: adults with normal wings,[2],1 Adults
CN1C(=O)CCS(=O)(=O)C1c1ccc(Cl)cc1 (stereo not shown) [Chlormezanone],Preliminary rescue result: adults with normal wings,[3],1 Adult Normal Wings Adults
CN1CCCN(C(c2ccccc2)c2ccc(Cl)cc2)CC1 (stereo not shown) [Homochlorcyclizine],Preliminary rescue result: adults with normal wings,[4],1 Adult Normal Wings Adults
same,Preliminary rescue result: adults with normal wings,[5]; 50 μM in fly food,"3 Adults Normal Wings,"
CC[C@@H](C(N)=O)N1CCCC1=O [Levetiracetam],Preliminary rescue result: adults with normal wings,[4],3 Adult Normal Wings Adults
Cc1cccc(CN2CCN(C(c3ccccc3)c3ccc(Cl)cc3)CC2)c1 (stereo not shown) [Meclozine Dihcl],Preliminary rescue result: adults with normal wings,[6],6 Adults Normal Wings
CN(C)c1ccc(O)c2c1C[C@H]1C[C@H]3[C@H](N(C)C)C(O)=C(C(N)=O)C(=O)[C@@]3(O)C(O)=C1C2=O [Minocycline],Preliminary rescue result: adults with normal wings,[3],1 Adult Normal Wings Adults
CCCC(C)C1(CC)C(=O)NC(=O)NC1=O (stereo not shown) [Pentobarbital],Preliminary rescue result: adults with normal wings,[4],3 Adult Normal Wings Adults
C1CCC(C(CC2CCCCN2)C2CCCCC2)CC1 (stereo not shown) [Perhexiline Maleate],Preliminary rescue result: adults with normal wings,[3],12 Adults
CC(C)NC[C@@H](O)COc1ccc(CC(N)=O)cc1 [R-(+)-Atenolol],Preliminary rescue result: adults with normal wings,[5]; 30 μM in fly food,2 Adults
same,Preliminary rescue result: adults with normal wings,[2],1 Adults
OCc1cc(C(O)CNCCCCCCOCCCCc2ccccc2)ccc1O (stereo not shown) [Salmeterol],Preliminary rescue result: adults with normal wings,[5]; 30 μM in fly food,1 Adult Normal Wings × 2 Adults
same,Preliminary rescue result: adults with normal wings,[2],1 Adult Normal Wings × 2 Adults
C[C@]12Cc3c[nH]nc3C[C@@H]1CC[C@@H]1[C@@H]2CC[C@@]2(C)[C@H]1CC[C@]2(C)O [Stanozolol],Preliminary rescue result: adults with normal wings,[6],3 Adult Normal Wings Adults
CCCCNc1ccc(C(=O)OCCN(C)C)cc1 [Tetracaine Hydrochloride],Preliminary rescue result: adults with normal wings,[4],2 Adult Normal Wings Adults
Clc1ccc(C(Cn2ccnc2)OCc2ccsc2Cl)c(Cl)c1 (stereo not shown) [Tioconazole],Preliminary rescue result: adults with normal wings,[4],2 Adults Normal Wings
Cc1c(C)c2c(c(C)c1O)CCC(C)(COc1ccc(CC3SC(=O)NC3=O)cc1)O2 (stereo not shown) [Troglitazone],Preliminary rescue result: adults with normal wings,[5]; 50 μM in fly food,2 Adults Normal Wings
same,Rescue Effect,"[5]; transgene wt, primary screening (50 μM), out of 15-20 pupae",2 adults
same,activity in high-throughput screen for modulators of cytochrome P450,[7],active
Clc1ccc(Nc2nnc(Cc3ccncc3)c3ccccc23)cc1 [Vatalanib],Preliminary rescue result: adults with normal wings,[6],1 Adult Normal Wings Adults
Tyloxapol,Preliminary rescue result: adults with normal wings,[2],1 Adult Normal Wings Adults
